Test system: GST-Bcl-2
Assay: TR-FRET binding assay, Bcl-2
Details: TR-FRET Ki values
Procedure, shortened: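 Compounds serially diluted in DMSO from 50 μM (2× starting concentration, 10% DMSO), mixed with GST-tagged protein, F-Bak peptide probe and Tb-labeled antibody, incubated 3 h at room temperature.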

Compound | Binding selectivity ratio (Bcl-XL Ki/Bcl-2 Ki)
CC1(C)CCC(CN2CCN(c3ccc(C(=O)NS(=O)(=O)c4ccc(NN5CCS(=O)(=O)CC5)c([N+](=O)[O-])c4)c(Oc4ccc5[nH]ccc5c4)c3)CC2)=C(c2ccc(Cl)cc2)C1 [EXAMPLE 362, 4-(4-{[2-(4-chlorophenyl)-4,4-dimethylcyclohex-1-en-1-yl]methyl}piperazin-1-yl)-N-({4-[(1,1-dioxidothiomorpholin-4-yl)amino]-3-nitrophenyl}sulfonyl)-2-(1H-indol-5-yloxy)benzamide] | 3548.2
CC1(C)CCC(CN2CCN(c3ccc(C(=O)NS(=O)(=O)c4cnc(OCC5(F)CCN(CC#N)CC5)c(Cl)c4)c(Oc4cccc5[nH]ncc45)c3)CC2)=C(c2ccc(Cl)cc2)C1 [EXAMPLE 419, N-[(5-chloro-6-{[1-(cyanomethyl)-4-fluoropiperidin-4-yl]methoxy}pyridin-3-yl)sulfonyl]-4-(4-{[2-(4-chlorophenyl)-4,4-dimethylcyclohex-1-en-1-yl]methyl}piperazin-1-yl)-2-(1H-indazol-4-yloxy)benzamide] | 1071
CN(C)CCCOc1ccc(-c2ccc(Cl)cc2)c(CN2CCN(c3ccc(C(=O)NS(=O)(=O)c4ccc(NCC5CCOCC5)c(S(=O)(=O)C(F)(F)F)c4)c(Oc4ccccc4)c3)CC2)c1 [Example 119, 4-[4-({4′-chloro-4-[3-(dimethylamino)propoxy]-1,1′-biphenyl-2-yl}methyl)piperazin-1-yl]-2-phenoxy-N-({4-[(tetrahydro-2H-pyran-4-ylmethyl)amino]-3-[(trifluoromethyl)sulfonyl]phenyl}sulfonyl)benzamide] | 370.2
CC1(C)CCC(CN2CCN(c3ccc(C(=O)NS(=O)(=O)c4ccc(OCC5(F)CCOCC5)c([N+](=O)[O-])c4)c(Oc4ccc5[nH]ccc5c4)c3)CC2)=C(c2ccc(Cl)cc2)C1 [EXAMPLE 327, 4-(4-{[2-(4-chlorophenyl)-4,4-dimethylcyclohex-1-en-1-yl]methyl}piperazin-1-yl)-N-({4-[(4-fluorotetrahydro-2H-pyran-4-yl)methoxy]-3-nitrophenyl}sulfonyl)-2-(1H-indol-5-yloxy)benzamide] | 3035.4
CC1(C)CCC(CN2CCN(c3ccc(C(=O)NS(=O)(=O)c4ccc(NCC5COCCO5)c([N+](=O)[O-])c4)c(Oc4ccc5[nH]ccc5c4)c3)CC2)=C(c2ccc(Cl)cc2)C1 (centres unmarked) [EXAMPLE 336, 4-(4-{[2-(4-chlorophenyl)-4,4-dimethylcyclohex-1-en-1-yl]methyl}piperazin-1-yl)-N-({4-[(1,4-dioxan-2-ylmethyl)amino]-3-nitrophenyl}sulfonyl)-2-(1H-indol-5-yloxy)benzamide] | 2301.3
O=C(NS(=O)(=O)c1ccc(NCC2CCOCC2)c([N+](=O)[O-])c1)c1ccc(N2CCN(Cc3ccccc3-c3ccc(Cl)cc3)CC2)cc1Oc1ccccc1 [Example 1, 4-{4-[(4′-chloro-1,1′-biphenyl-2-yl)methyl]piperazin-1-yl}-N-({3-nitro-4-[(tetrahydro-2H-pyran-4-ylmethyl)amino]phenyl}sulfonyl)-2-phenoxybenzamide] | 85.4
CC(C)C[C@@H](CO)Nc1ccc(S(=O)(=O)NC(=O)c2ccc(N3CCN(CC4=C(c5ccc(Cl)cc5)CC(C)(C)CC4)CC3)cc2Oc2ccc3[nH]ccc3c2)cc1[N+](=O)[O-] [EXAMPLE 369, 4-(4-{[2-(4-chlorophenyl)-4,4-dimethylcyclohex-1-en-1-yl]methyl}piperazin-1-yl)-N-[(4-{[(1S)-1-(hydroxymethyl)-3-methylbutyl]amino}-3-nitrophenyl)sulfonyl]-2-(1H-indol-5-yloxy)benzamide] | >0.8
CC(=O)N1CCC(Nc2ccc(S(=O)(=O)NC(=O)c3ccc(N4CCN(CC5=C(c6ccc(Cl)cc6)CC(C)(C)CC5)CC4)cc3Oc3ccc4[nH]ccc4c3)cc2[N+](=O)[O-])CC1 [EXAMPLE 334, N-({4-[(1-acetylpiperidin-4-yl)amino]-3-nitrophenyl}sulfonyl)-4-(4-{[2-(4-chlorophenyl)-4,4-dimethylcyclohex-1-en-1-yl]methyl}piperazin-1-yl)-2-(1H-indol-5-yloxy)benzamide] | >3697.5
CN(C)CCCNc1ccc(S(=O)(=O)NC(=O)c2ccc(N3CCN(Cc4ccccc4-c4ccc(Cl)cc4)CC3)cc2Oc2ccc3[nH]ccc3c2)cc1S(=O)(=O)C(F)(F)F [Example 64, 4-{4-[(4′-chloro-1,1′-biphenyl-2-yl)methyl]piperazin-1-yl}-N-({4-{[3-(dimethylamino)propyl]amino}-3-[(trifluoromethyl)sulfonyl]phenyl}sulfonyl)-2-(1H-indol-5-yloxy)benzamide] | 77.1
CC(C1=C(c2ccc(Cl)cc2)CC(C)(C)CC1)N1CCN(c2ccc(C(=O)NS(=O)(=O)c3ccc(NCC4CCOCC4)c([N+](=O)[O-])c3)c(Oc3ccc4[nH]ccc4c3)c2)CC1 (centres unmarked) [EXAMPLE 253, 4-(4-{1-[2-(4-chlorophenyl)-4,4-dimethylcyclohex-1-en-1-yl]ethyl}piperazin-1-yl)-2-(1H-indol-5-yloxy)-N-({3-nitro-4-[(tetrahydro-2H-pyran-4-ylmethyl)amino]phenyl}sulfonyl)benzamide] | >4663.3
CN(C)CC(=O)N1CCO[C@@H](CNc2ccc(S(=O)(=O)NC(=O)c3ccc(N4CCN(CC5=C(c6ccc(Cl)cc6)CC(C)(C)CC5)CC4)cc3Oc3cccc4[nH]cnc34)cc2[N+](=O)[O-])C1 [EXAMPLE 438, 2-(1H-benzimidazol-4-yloxy)-4-(4-{[2-(4-chlorophenyl)-4,4-dimethylcyclohex-1-en-1-yl]methyl}piperazin-1-yl)-N-{[4-({[(2S)-4-(N,N-dimethylglycyl)morpholin-2-yl]methyl}amino)-3-nitrophenyl]sulfonyl}benzamide] | 34.5
CN(C)CCCNc1ccc(S(=O)(=O)NC(=O)c2ccc(N3CCN(Cc4ccccc4-c4ccc(Cl)cc4)CC3)cc2Oc2ccccc2)cc1C#N [Example 90, 4-{4-[(4′-chloro-1,1′-biphenyl-2-yl)methyl]piperazin-1-yl}-N-[(3-cyano-4-{[3-(dimethylamino)propyl]amino}phenyl)sulfonyl]-2-phenoxybenzamide] | 133
CC1CC(=O)NN=C1c1ccc(S(=O)(=O)NC(=O)c2ccc(N3CCN(Cc4ccccc4-c4ccc(Cl)cc4)CC3)cc2Oc2ccccc2)cc1 (centres unmarked) [Example 29, 4-{4-[(4′-chloro-1,1′-biphenyl-2-yl)methyl]piperazin-1-yl}-N-{[4-(4-methyl-6-oxo-1,4,5,6-tetrahydropyridazin-3-yl)phenyl]sulfonyl}-2-phenoxybenzamide] | >55.4
CC1(C)CCC(CN2CCN(c3ccc(C(=O)NS(=O)(=O)c4ccc(NCC5CCOCC5)c(C(F)(F)F)c4)c(Oc4ccc5[nH]ccc5c4)c3)CC2)=C(c2ccc(Cl)cc2)C1 [EXAMPLE 277, 4-(4-{[2-(4-chlorophenyl)-4,4-dimethylcyclohex-1-en-1-yl]methyl}piperazin-1-yl)-2-(1H-indol-5-yloxy)-N-{[4-[(tetrahydro-2H-pyran-4-ylmethyl)amino]-3-(trifluoromethyl)phenyl]sulfonyl}benzamide] | >22.2
CC1(C)CCC(CN2CCN(c3ccc(C(=O)NS(=O)(=O)c4ccc(NCC(F)(F)F)c([N+](=O)[O-])c4)c(Oc4ccc5[nH]ccc5c4)c3)CC2)=C(c2ccc(Cl)cc2)C1 [EXAMPLE 344, 4-(4-{[2-(4-chlorophenyl)-4,4-dimethylcyclohex-1-en-1-yl]methyl}piperazin-1-yl)-2-(1H-indol-5-yloxy)-N-({3-nitro-4-[(2,2,2-trifluoroethyl)amino]phenyl}sulfonyl)benzamide] | 1576.9
CN(C)CCCCNc1ccc(S(=O)(=O)NC(=O)c2ccc(N3CCN(Cc4ccccc4-c4ccc(Cl)cc4)CC3)cc2Oc2ccccc2)cc1[N+](=O)[O-] [Example 156, 4-{4-[(4′-chloro-1,1′-biphenyl-2-yl)methyl]piperazin-1-yl}-N-[(4-{[4-(dimethylamino)butyl]amino}-3-nitrophenyl)sulfonyl]-2-phenoxybenzamide] | 53.1
COCCNc1ccc(S(=O)(=O)NC(=O)c2ccc(N3CCN(CC4=C(c5ccc(Cl)cc5)CC(C)(C)CC4)CC3)cc2Oc2cccc3[nH]ccc23)cc1[N+](=O)[O-] [EXAMPLE 239, 4-(4-{[2-(4-chlorophenyl)-4,4-dimethylcyclohex-1-en-1-yl]methyl}piperazin-1-yl)-2-(1H-indol-4-yloxy)-N-({4-[(2-methoxyethyl)amino]-3-nitrophenyl}sulfonyl)benzamide] | 430.9
CC1(C)CCC(CN2CCN(c3ccc(C(=O)NS(=O)(=O)c4ccc(NC5CCN(C6CCOCC6)CC5)c([N+](=O)[O-])c4)c(Oc4cccnc4)c3)CC2)=C(c2ccc(Cl)cc2)C1 [EXAMPLE 398, 4-(4-{[2-(4-chlorophenyl)-4,4-dimethylcyclohex-1-en-1-yl]methyl}piperazin-1-yl)-N-({3-nitro-4-[(1-tetrahydro-2H-pyran-4-ylpiperidin-4-yl)amino]phenyl}sulfonyl)-2-(pyridin-3-yloxy)benzamide] | 67.69
CC1(C)CCC(CN2CCN(c3ccc(C(=O)NS(=O)(=O)c4ccc(NCCC(F)(F)F)c([N+](=O)[O-])c4)c(Oc4ccc5[nH]ccc5c4)c3)CC2)=C(c2ccc(Cl)cc2)C1 [EXAMPLE 324, 4-(4-{[2-(4-chlorophenyl)-4,4-dimethylcyclohex-1-en-1-yl]methyl}piperazin-1-yl)-2-(1H-indol-5-yloxy)-N-({3-nitro-4-[(3,3,3-trifluoropropyl)amino]phenyl}sulfonyl)benzamide] | >445.7
O=C(NS(=O)(=O)c1ccc(NCCCN2CCOCC2)c([N+](=O)[O-])c1)c1ccc(N2CCN(Cc3ccccc3-c3ccc(Cl)cc3)CC2)cc1Oc1ccc2ccccc2c1 [Example 36, 4-{4-[(4′-chloro-1,1′-biphenyl-2-yl)methyl]piperazin-1-yl}-N-({4-[(3-morpholin-4-ylpropyl)amino]-3-nitrophenyl}sulfonyl)-2-(2-naphthyloxy)benzamide] | 11.3
